Reference: patent US8580229B2, “Amyloid imaging as a surrogate marker for efficacy of anti-amyloid therapies” (University of Pittsburgh—of the Commonwealth System of …, priority 2004, dated 2013)

Test system: amyloid deposition in AD brain (homogenates of frontal, temporal, parietal cortex and cerebellum)
Assay: [^3H]PIB binding to homogenates of postmortem brain
Parameters: species or system human
Conditions: AD n=5, control n=4; 1 nM [^3H]PIB
Protocol: To determine whether benzothiazole amyloid imaging probes might be sensitive to changes in brain amyloid deposition caused by an anti-amyloid therapy in general, testing by immunization with AN-1792 was performed. Studies were performed for the binding of {N-methyl-^3H}2-[4′-(methylamino)phenyl]6-hydroxy-benzothiazole ([^3H]PIB) to homogenates of frontal cortex and cerebellum obtained from control subjects (n=4), AD patients (n=5) and from a single AN-1792-treated AD case (in duplicate). See, e.g., Example 9.
This [^11C]PIB retention follows the known topography of amyloid deposition in AD brain (Klunk et al. 2004, Ann. Neurol., 55 (3):306-19). To determine whether the present benzothiazole amyloid imaging probes are sensitive to changes in brain amyloid deposition caused by an anti-amyloid therapy in general, studies were performed for the binding of {N-methyl-^3H}2-[4′-(methylamino)phenyl]6-hydroxy-benzothiazole ([^3H]PIB) to homogenates of postmortem brain from […] AN-1792-treated AD cases. […] An aliquot was submitted for Aβ ELISA and another aliquot was assayed for [^3H]PIB binding after dilution with phosphate-buffered saline (100 mg tissue, incubated with 1 nM [^3H]PIB, filtered, washed and counted to determine bound [^3H]PIB).

[3H]C([3H])([3H])Nc1ccc(-c2nc3ccc(O)cc3s2)cc1 [[^3H]PIB, {N-methyl-^3H}2-[4′-(methylamino)phenyl]6-hydroxy-benzothiazole]
[^3H]PIB binding to frontal cortex homogenates of AD patients compared to control brain: elevated [^3H]PIB binding compared to control brain
